Source: patent US8404640B2 (priority 2006, dated 2013)

Legend:
CXCL12 promoter = assay: Methylation-specific PCR of the CXCL12 promoter in 5-aza-treated cells; format: cell-based, human
Description: Methylation Specific PCR and Bisulphite Sequencing PCR. Genomic DNA from cell lines and colonic crypt preparations was isolated using the Genomic DNA wizard kit (Promega, Madison, Wis.) or TRIzol according to the manufacturer's instructions. […] DNA (2 μg) was denatured in 0.3M NaOH at 42° C. for 20 min in a 111 μl reaction volume. To this 1.2 ml of sodium bisulphite solution (4.5M NaHSO3, 0.02M hydroquinone, and pH 5.0) was added and incubated 16 hrs at 55° C. This reaction was desalted using DNA Purification Wizard (Promega) and the DNA was desulfonated in 0.3M NaOH at 37° C. for 20 min. The converted DNA was precipitated at −20° C., overnight in 75% ethanol containing 0.7M ammonium acetate and 0.05 mg/ml of glycogen, reconstituted in 50 μl of water, and 4.0 μl used in each 50 μl PCR reaction using 0.5 μM of specific MSP primers (Table S1).

[1] = system: CXCL12 protein expression; assay: Immunofluorescence microscopy of CXCL12 protein in 5-aza-treated HCT116 cells; format: cell-based, human; conditions: 2.5 μM 5-aza, 3 days
Description: Immunofluorescence microscopy. HCT116 epithelial cells were plated to glass chamber slides and grown for 3-days in untreated or 5-aza containing media. Cells were stained with mouse mAb specific for CXCL12 (clone #79018.111, R&D Systems) or a nonspecific mouse IgG control antibody (BD Pharmingen, San Jose, Calif.). CXCL12 protein and IgG background staining was visualized using Alexa Fluor 594 conjugated goat anti-mouse antibody (Molecular Probes, Eugene, Oreg.). Nuclei were visualized with a DAPI counterstain.

CXCL12 mRNA expression = assay: RT-PCR analysis of CXCL12 and CXCR4 mRNA in 5-aza-treated colonic carcinoma cells; format: cell-based, human; conditions: for CXCL12 mRNA expression: indicated concentrations for five days
Source text: (§1) Human colorectal carcinoma cell lines. HT29 (HTB-38), HCT116 (CCL-247), Caco2 (HTB-37), T84 (CCL-248) colonic carcinoma cells were purchased from the American Type Culture Collection (ATCC, Rockville, Md.) and maintained as previously described (Smith, J. M., et al. (2005) Am. J. Physiol Gastrointest. Liver Physiol 288, 316-26; Dwinell, M. B., et al. (2001) Gastroenterology 120, 49-59). Dnmt1, Dnmt3b or Dnmt1/Dnmt3b double knockout HCT116 cells were the kind gift of Dr. Bert Vogelstein (John Hopkins University School of Medicine) and were maintained similarly to wild-type HCT116 cells. In some experiments, carcinoma cells were treated with 5-aza (EMD Biosciences, La Jolla, Calif.) every 24 hr for the indicated number of days.
RT-PCR analysis. Total RNA was isolated from cultured cells and colonic crypt epithelium using TRIzol reagent (Invitrogen, Carlsbad, Calif.), DNase treated (Ambion, Austin, Tex.) and 2 μg of total RNA was converted to cDNA via reverse transcription using random priming in a 40 μl volume. CXCL12, CXCR4, and β-actin mRNA transcripts were amplified using previously described PCR primers and conditions (Heidemann, J., et al. (2004) Am. J. Physiol Gastrointest. Liver Physiol 286, G1059-G1068; Smith, J. M., et al. (2005) Am. J. Physiol Gastrointest. Liver Physiol 288, 316-26). Other PCR analyses were conducted using listed primer pairs and conditions (Table S1). […] in cDNA synthesis reactions as a negative control.

Dnmt1 = target: T1, Dnmt1 (Homo sapiens, UniProt P26358); assay: Immunoblot of extractable Dnmt1 in 5-aza-treated HCT116 cells; format: cell-based; conditions: increasing concentrations of 5-aza
T1 construct: endogenous in cells; host or cells: HCT116 (ATCC CCL-247)
T1 sequence (P26358 whole entry): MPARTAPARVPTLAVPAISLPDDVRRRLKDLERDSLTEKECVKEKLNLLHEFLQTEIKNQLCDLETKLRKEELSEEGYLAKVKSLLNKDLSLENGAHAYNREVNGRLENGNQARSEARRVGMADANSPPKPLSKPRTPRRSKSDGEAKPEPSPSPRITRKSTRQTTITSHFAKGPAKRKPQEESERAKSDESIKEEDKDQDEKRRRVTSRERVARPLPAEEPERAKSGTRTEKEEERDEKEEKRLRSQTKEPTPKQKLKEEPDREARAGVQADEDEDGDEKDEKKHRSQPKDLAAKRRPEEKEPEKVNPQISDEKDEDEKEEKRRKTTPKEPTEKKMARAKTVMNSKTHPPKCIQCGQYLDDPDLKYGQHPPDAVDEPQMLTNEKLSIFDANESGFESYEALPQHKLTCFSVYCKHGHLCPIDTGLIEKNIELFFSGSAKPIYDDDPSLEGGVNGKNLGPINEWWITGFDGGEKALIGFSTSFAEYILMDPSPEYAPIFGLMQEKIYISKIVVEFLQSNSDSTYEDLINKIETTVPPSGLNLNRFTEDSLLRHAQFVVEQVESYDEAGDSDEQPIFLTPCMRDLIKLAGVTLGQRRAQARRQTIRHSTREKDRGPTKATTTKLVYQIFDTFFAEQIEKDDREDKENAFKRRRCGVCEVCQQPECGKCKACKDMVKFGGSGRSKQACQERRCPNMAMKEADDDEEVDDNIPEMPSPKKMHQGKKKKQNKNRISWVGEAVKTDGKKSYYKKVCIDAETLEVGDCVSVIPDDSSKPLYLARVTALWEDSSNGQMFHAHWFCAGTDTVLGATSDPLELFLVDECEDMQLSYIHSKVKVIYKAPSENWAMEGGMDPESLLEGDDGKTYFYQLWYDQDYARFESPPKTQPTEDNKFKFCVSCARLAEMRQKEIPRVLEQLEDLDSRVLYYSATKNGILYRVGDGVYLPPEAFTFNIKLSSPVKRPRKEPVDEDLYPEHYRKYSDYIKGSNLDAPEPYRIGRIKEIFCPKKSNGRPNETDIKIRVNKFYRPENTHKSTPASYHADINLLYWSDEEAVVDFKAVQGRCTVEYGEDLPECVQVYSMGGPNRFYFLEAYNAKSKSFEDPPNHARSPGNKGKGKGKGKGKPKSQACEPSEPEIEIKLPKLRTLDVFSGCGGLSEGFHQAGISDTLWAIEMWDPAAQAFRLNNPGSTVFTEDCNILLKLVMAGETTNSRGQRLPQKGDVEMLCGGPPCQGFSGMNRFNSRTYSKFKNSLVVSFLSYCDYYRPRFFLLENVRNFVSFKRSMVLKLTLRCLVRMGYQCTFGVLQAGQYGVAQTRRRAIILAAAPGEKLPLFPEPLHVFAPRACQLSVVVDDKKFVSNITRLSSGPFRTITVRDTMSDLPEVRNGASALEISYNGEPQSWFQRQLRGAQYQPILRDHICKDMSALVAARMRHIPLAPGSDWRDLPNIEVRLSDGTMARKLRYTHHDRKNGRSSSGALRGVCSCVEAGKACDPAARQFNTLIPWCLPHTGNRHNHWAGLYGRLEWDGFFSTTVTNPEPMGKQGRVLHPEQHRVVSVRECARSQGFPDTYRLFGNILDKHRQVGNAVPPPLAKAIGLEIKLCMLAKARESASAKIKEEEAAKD
Source text: as §1
Immunoblot analysis. For the detection of Dnmt1, Dnmt3b and actin, whole cell lysates were prepared as previously described (Smith, J. M., Johanesen, P. A., Wendt, M. K., Binion, D. G., and Dwinell, M. B. (2005). CXCL12 activation of CXCR4 regulates mucosal host defense through stimulation of epithelial cell migration and promotion of intestinal barrier integrity. Am. J. Physiol Gastrointest. Liver Physiol 288, 316-26), and 10 or 25 μg of protein size separated using reducing SDS-PAGE. Equal protein loading was confirmed by Coomassie blue staining. […]

[2] = system: CXCR4-expressing U937 monocytic cells; assay: Leukocyte chemotaxis assay (Transwell, U937 monocytes over epithelial monolayers); format: cell-based, human
Description: Leukocyte chemotaxis assay. HT29 or HCT116 cells were plated and grown to confluence in 24-well dishes. Cells were then serum starved for 2 days. Calcein-AM (Molecular Probes) loaded U937 monocytes (5×10^5) were plated to the upper well of a Transwell chemotaxis chamber (5 μm pore size, Corning Costar, Corning, N.Y.), with the serum-starved epithelial monolayers in the bottom chamber. U937-epithelial co-cultures were supplemented with the CXCR4 receptor antagonist AMD3100 (5 μg/ml) or remain untreated as a control. U937 cells were incubated without epithelial cells or, as a separate control, epithelial cells alone, were used to establish constitutive chemotaxis or auto-fluorescence respectively. U937 cells were incubated with epithelial cells for 3 hr and the number of migrated calcein-loaded monocytes in the bottom chamber quantified by fluorescence spectroscopy (Victor Wallac, Perkin Elmer).

Compound: Nc1ncn([C@H]2C[C@H](O)[C@@H](CO)O2)c(=O)n1 [5-aza, 5-aza-2′-deoxycytidine]
- methylation of the CXCL12 promoter (CXCL12 promoter; HCT116 cells, 2.5 μM 5-aza, 3 days): inhibited
- methylation of the CXCL12 promoter (CXCL12 promoter; HT29 cells (data not shown)): inhibited
- CXCL12 protein expression by immunofluorescence [1]: detected
- CXCL12 gene re-expression (CXCL12 mRNA expression; Caco2 cells (data not shown)): similarly fostered gene re-expression
- CXCL12 mRNA expression (CXCL12 mRNA expression; HCT116 cells): dose-dependently restored
- CXCR4 mRNA levels (CXCL12 mRNA expression; HT29 and HCT116 cells with 5-aza treatment): remained unchanged
- CXCL12 mRNA expression (CXCL12 mRNA expression; HT29 cells): dose-dependently restored
- time of maximal CXCL12 re-expression (CXCL12 mRNA expression; HT29 or HCT116 cells, 2.5 μM 5-aza for 3-6 days): 5 days
- CXCL12 gene re-expression (CXCL12 mRNA expression; T84 cells (data not shown)): similarly fostered gene re-expression
- extractable levels of Dnmt1 (Dnmt1): ablated

Compound: c1cc(CN2CCCNCCNCCCNCC2)ccc1CN1CCCNCCNCCCNCC1 [AMD3100]
- chemotaxis of U937 cells toward CXCL12-expressing HT29 and HCT116 cells ([2]; AMD3100 5 μg/ml, 3 hr): potently blocked migration

Compound: CXCL12: alpha type 7.8 kDa CXC chemokine, here secreted by stably transfected HT29 and HCT116 cells
- ability to stimulate chemotaxis of U937 cells ([2]; CXCL12 secreted from HT29 and HCT116 stable transfectants): functional
